Experimental data from patent US7754272B2, “Local drug delivery” (Biocompatibles IK Limited, priority 1999, dated 2010).

Experiments:
[1] = Loading and release from quater polymer membrane; format: physicochemical; details: caffeine from aqueous, dipyridamole from 1:1 ethanol:water solution
[2] = Release from loaded membrane into water; format: physicochemical; details: HEMA-PC:HEMA:MMA:MBA membrane, FIG. 1
Description: The profile of fractional release against square root of time for release into water (using the same equipment as example 2) are set out in FIG. 1.

[3] = Drug loading of HEMA-PC:HEMA:MMA:MBA crosslinked membrane; format: physicochemical; details: HEMA-PC:HEMA:MMA:MBA copolymer swollen in aqueous drug solution, room temperature, over night
Description: The polymers including MBA were polymerised in situ to form crosslinked membranes. […] The crosslinked polymers were used to form “infinite slabs” type membranes, to simulate the coating on a stent. […] The loaded levels were established to be the following: […]

[4] = Effect of polymer composition on release of dicloxacillin; format: physicochemical; details: HEMA-PC:LM 1:4 with 2 mole % 3-chloro-2-hydroxypropyl methacrylate vs example 3 polymer, FIG. 2
Description: The membrane formed based on a 1:4 copolymer of HEMA-PC and dodecylmethacrylate (LM) with 2 mole % of reactive monomer which is 3-chloro-2-hydroxypropyl methacrylate, was compared to the polymer crosslinked by diethylenically unsaturated monomer MBA used in example 3 above, to compare release rates to dicloxacillin, a medium molecular weight model drug.

[5] = Ex vivo human saphenous vein model, polymer/dipyridamole coated stents
Method: Palmaz-Schatz Stents (trade mark) were coated with a solution of the same polymer as used in Reference Example 1, dissolved in ethanol at 50 g/l concentration, also containing dipyridamole at 30 g/l concentration. Stents were dipped into the solution by hand, using several coating steps. The stents were then cured overnight at 70 C. in moist air.
The coated stents were tested in an ex vivo model using fresh human saphenous vein, previously washed in the same culture medium as is used in Example 16 above, in the ex vivo tests. The stents were delivered into veins, which were subsequently deposited into apparatus used in Example 16. The circulating liquid, and the vessel wall were analysed at 1, 6 or 24 hours to determine localisation of dipyridamole. […] Similarly, the level of dipyridamole remaining on the stent decreases from 1 hour to 24 hours. […] At this time, dipyridamole is concentrated in the section of the vein immediately surrounding the stent with lower levels in the vessel immediately adjacent those sections.

Row | Loading (mg/g polymer) [3] | release half life, polymer having hydrophobic groups versus MBA-crosslinked polymer [4] | Compound | total loading [1] | release into water [2] | level of drug per stent (coated stent swollen in aqueous caffeine 10 mg/ml) | share of loading released in the first 60 seconds (first 60 seconds) | release times (release into aqueous medium, loaded from 10 mg/ml) | loading levels or release half life versus 10 mg/ml loading (swelling solution 10% w/w caffeine) | dipyridamole within the vessel wall ([5]; 1, 6 or 24 hours) | dipyridamole in the circulating medium ([5]; 1 to 24 hours)
1 | 32 mg/g polymer | much higher | Cc1onc(-c2c(Cl)cccc2Cl)c1C(=O)N[C@@H]1C(=O)N2[C@@H]1SC(C)(C)[C@@H]2C(=O)O [Dicloxacillin, dicloxacillin] | – | – | – | – | – | – | – | –
2 | 32 mg/g polymer | – | OCCN(CCO)c1nc(N2CCCCC2)c2nc(N(CCO)CCO)nc(N3CCCCC3)c2n1 [Dipyridamole, dipyridamole] | 18 mg/g polymer | – | – | – | – | – | no dipyridamole could be seen within the vessel wall until twenty four hours after stent deployment | can be detected in the circulating medium after one hour

Row | Compound | Loading (mg/g polymer) [3] | release half life, polymer having hydrophobic groups versus MBA-crosslinked polymer [4] | total loading [1] | release into water [2] | level of drug per stent (coated stent swollen in aqueous caffeine 10 mg/ml) | share of loading released in the first 60 seconds (first 60 seconds) | release times (release into aqueous medium, loaded from 10 mg/ml) | loading levels or release half life versus 10 mg/ml loading (swelling solution 10% w/w caffeine) | dipyridamole within the vessel wall ([5]; 1, 6 or 24 hours) | dipyridamole in the circulating medium ([5]; 1 to 24 hours)
3 | Cn1c(=O)c2c(ncn2C)n(C)c1=O [Caffeine, caffeine] | 80 mg/g polymer | – | 28 mg/g polymer | substantially total release after about an hour | around 0.025 mg per stent | at least 80% | negligible | No significant increase | – | –
